Results reported in patent publication US20150335678A1, “METHOD OF ACTIVATING STEM CELLS IN AN ANIMAL AND THE USE OF CHLORINE DIOXIDE FOR PREPARING MEDICINES FOR ACTIVATING STEM CELLS IN AN ANIMAL” (priority 2012, published 2015).

Legend:
[1] = test system: VE cadherin-positive mononuclear cells; experiment: VE cadherin-positive mononuclear cells in peripheral blood of lower limb DVT patients, flow cytometry; type: in vivo, human; conditions: before administration 0.44 ± 0.70, diluted solution 10 ml/body/day femoral artery puncture, 14 days
Description: The subjects consisted of 14 male and 6 female lower limb DVT patients with the unilateral limb suffer from the illness, aged from 59 to 76 years old (average age: 67.2 years old). The purpose of the clinical test was explained to all subjects and their consent was obtained before conducting the clinical test.
The first solution was a mixed solution made of sodium chlorite with the concentration of 7.47% and sodium chloride with the concentration of 1.59% with deionized water; the second solution was made of citric acid with the concentration of 16.7% with deionized water. Same volume of solutions were taken out from different vessels with different volumes and mixed up. […]
Five ml of peripheral blood was collected from the median cubital vein of the forearm of each patient using low molecular weight heparin anticoagulant before administration (before initial administration) and on day 7 and 14 after administration, and the collected blood was immediately stored at 4° C. and measured within 6 hours after collection. […]
VE Cadherin-positive mononuclear cells were isolated by immunofluorescent stain using flow cytometry. […] Next, VE cadherin-positive mononuclear cells were isolated and counted by flow cytometry. The ratio (%) of VE cadherin-positive mononuclear cells among the mononuclear cells was calculated according to the following formula. […]

[2] = test system: BrdU-positive (migrating) cells; experiment: BrdU-positive (migrating) cells in the SVZ region; type: in vivo, Sprague-Dawley rats; conditions: for number of BrdU-positive cells in the SVZ region, migration (mean±SD): BrdU twice within 24 hours after model established
Experimental: Male Sprague-Dawley rats with the age of 12 weeks and weight of 250^˜280 g were used in the experiment after acclimating for a week.
A middle cerebral artery occlusion model was first established in compliance with the method of Longa E Z et al. (Longa E Z, et al. Reversible middle cerebral artery occlusion without craniectomy in rats. Stroke 20:84-91, 1989). More specifically, 0.36 g/kg of 10% chloral hydrate was administered intraperitoneally to rats which had been fasted for 12 hours (although given free access to water) to anesthetize the rats. Next, a midline incision was made in the neck to expose the right common carotid artery. Then, the internal carotid artery and external carotid artery were separated, the posterior carotid artery, which is a branch of the external carotid artery, and the thyroidea arteria were coagulated and severed, the external carotid artery was ligated at the branch of the lingual artery and maxillary artery, a small puncture was formed in the external carotid artery, 4-0 Nylon suture was passed through the common carotid artery from the puncture, and gradually inserted into the internal carotid artery until there was resistance. The length of the Nylon suture was about 18^˜20 mm from the branch of the common carotid artery. As a result of occluding the middle cerebral artery with Nylon suture, an ischemic state was applied for 2 hours to create a middle cerebral artery occlusion model.
A cerebral ischemia/reperfusion injury model was established by removing the Nylon suture from the middle cerebral artery of the occlusion model and following reperfusion of blood.
The first solution was a mixed solution made of sodium chlorite with the concentration of 7.47% and sodium chloride with the concentration of 1.59% with deionized water; the second solution was made of citric acid with the concentration of 16.7% with deionized water. Same volume of solutions were taken out from different vessels with different volumes and mixed up. Allow the solution to mix for 3-5 minutes and dilute it five times with normal saline, and then filter it with 0.22 μm filter membrane of double-deck. The solution was immediately put into injector. The solution was prepared once being used.
Treatment group (120 rats): A cerebral ischemia/reperfusion injury model was established for the rats already. To administer chlorine dioxide solution everytime that prepared from procedure (3) through carotid artery after the second day the model has established, once a day for total ten days.
Thirty Rats in each group were intraperitoneally injected twice with 50 mg/kg of BrdU within 24 hours after model established. The rats were autopsied on day 7, 14 and 21 after model established for preparation of frozen brain sections. The presence of BrdU-positive cells in the SVZ region was analyzed by immunochemical stain using mouse anti-rat BrdU monoclonal antibody.
BRt(%)=(Bt−St)/(Mt−St)×100

alopecia areata = experiment: Alopecia areata patients, topical solution with dimethyl sulfoxide (Example 4); type: in vivo, human
Experimental: The first solution was a mixed solution made of sodium chlorite with the concentration of 7.47% and sodium chloride with the concentration of 1.59% with deionized water; the second solution was made of citric acid with the concentration of 16.7% with deionized water.
Same volume of solutions were taken out from different vessels with different volumes and put into the suitable glass or plastic cups prepared. Allow the solution to mix for 3-5 minutes and then filter the solution with 0.22 μm filter membrane of double-deck, dimethyl sulfoxide was added in a ratio of 1:1, and then smear solution over the alopecia areata with the swab, waiting for 1-2 hours before cleaning the head, the drug was administered once a day according to the method. The first period lasted for 15-25 days, then the drug was stopped for 2-5 months; The second period lasted for 15-25 days in the light of the situation.
The subjects consisted of 11 male alopecia areata patients and a patient (the patients are between 22-40 years old.) They administered the activating agent of stem cell as volunteers, see Table 12.

[3] = test system: hip arthritis (osteoarthritis); experiment: Hip arthritis patients: VAS pain intensity, WOMAC, tolerance (Example 5); type: in vivo, human; conditions: 11 hip arthritis patients; for WOMAC mean (±SD): beginning 55.03 (±26.63); for Doctor VAS pain intensity, mean (±SD), 0-100: beginning 55.23 (±9.66); for Patients VAS pain intensity, mean (±SD), 0-100: beginning 58.32 (±8.25)
Experimental: To smear the solution over the skin of hip arthritis with swab immediately, once a day for consecutive 20 days. Then stop the administration for three months, and then began continuous treatment for 20 days. Clean and disinfect the regions before treatment, conduct local anesthetic 30 minutes before the operation.
The subjects who joined in the treatment group as volunteers consisted of 11 patients with hip arthritis (5 male, aged from 40 to 70 years old and 6 female, aged from 40 to 65 years old.). Case histories were recorded at the third and the sixth month by collecting personal and data of human body (height, body weight, BMI, blood pressure and heart rate.) Then evaluate the following parameters:
Pain intensity: VAS was used, ranging from 0 (normal) to 100 (maximum intensity), it was conducted by the doctor and patient:
Seriousness of the illness: Womac, namely, self-assessment of hip arthritis that consists of 24 items was used to detect the development and effect of the treatment.

[4] = test system: rat model of type II diabetes mellitus; experiment: Fasting blood-glucose in rat model of type II diabetes mellitus (Example 10); type: in vivo
Experimental: The rat models of type II diabetes mellitus bought from Department of Medicine of Peking University were divided into group A and B randomly with 10 rats for each group. Group A was treatment group of activating agent of stem cells. Group B was control group of 0.9% sodium chloride of the same volume. The rats of group A were injected with 0.5 ml activating agent of stem cells at insulin injection site on day 0, same dosage of medicine were injected on day 7, day 14; The rats of group B were injected with 0.5 ml NS at hepatic artery at the same point-in-time, then calculate the blood sugar. The fasting blood-glucose of the rat model was checked on day 7, day 14, day 21 and day 28 respectively after the last injection. Table 20 is the results.

wound of rabbit = conditions: Jin Wei et al. 2011; cited from earlier work
[5] = test system: APTT, PT and TT (blood coagulation and fibrinolysis systems); experiment: Side effects in lower limb DVT patients: APTT, PT, TT and pain
Experimental: Chlorine dioxide solution was administered to the patients through the contralateral femoral artery puncture (sick side) for 14 consecutive days, a dose of 10 ml/body/day. Before injection, use 2 ml-5 ml lidocaine of 2% to perform infiltration anesthesia at puncture point.

[O][Cl+][O-] [chlorine dioxide solution, chlorine dioxide]
VE Cadherin-Positive Mononuclear Cells (ratio among mononuclear cells, mean±SD) ([1]; Day 7 after administration, n=20): 1.5 ± 1.11 %
VE Cadherin-Positive Mononuclear Cells (ratio among mononuclear cells, mean±SD) ([1]; Day 14 after administration, n=15): 1.91 ± 1.65 %
BRt: BrdU-positive (migrating) cells in treatment group relative to model group = 100% ([2]; Day 7): 121.0%
number of BrdU-positive cells in the SVZ region, migration (mean±SD) ([2]; Day 7, model group 136.56 ± 15.63, sham 2.85 ± 1.05, diluted solution via carotid artery once a day, ten days): 164.61 ± 16.3 No. cells/mm2
BRt: BrdU-positive (migrating) cells in treatment group relative to model group = 100% ([2]; Day 14): 144.7%
number of BrdU-positive cells in the SVZ region, migration (mean±SD) ([2]; Day 14, model group 78.6 ± 8.5, sham 3.39 ± 1.35): 112.2 ± 10.6 No. cells/mm2
BRt: BrdU-positive (migrating) cells in treatment group relative to model group = 100% ([2]; Day 21): 227.1%
number of BrdU-positive cells in the SVZ region, migration (mean±SD) ([2]; Day 21, model group 34.9 ± 5.48, sham 3.11 ± 1.05): 75.3 ± 8.39 No. cells/mm2
distribution of BrdU-positive cells in SVZ region ([2]; treatment group, in model group only on the surface of the SVZ region): widely distributed from the surface to interior of the SVZ region
time until new hair equably grew, second period of administration (alopecia areata; course of disease more than 12 months, 7 patients): equably grow 3-5 days.
time until new hair grew along the alopecia areata area, first period of administration (alopecia areata; course of disease more than 12 months, 7 patients, NaClO2 7.47% + citric acid 16.7% 1:1, DMSO 1:1, smeared once a day): 3-5 days after
time until new hair grew, second period of administration (alopecia areata; course of disease within 12 months, 5 patients): 3-5 days after
time until new hair grew, first period of administration (alopecia areata; course of disease within 12 months, 5 patients, NaClO2 7.47% + citric acid 16.7% 1:1, DMSO 1:1, smeared once a day 15-25 days): 3-5 days after
hair fell off, second period of administration (alopecia areata; course of disease within 12 months, 5 patients, second period 15-25 days after 2-5 months off): About 50% of hair fell
time until pain and itch during administration disappeared completely ([3]; topical with DMSO): about an hour
tolerance ([3]; topical with DMSO): without local or systemic anaphylactic reaction
WOMAC mean (±SD) ([3]; sixth month, topical with DMSO): 6.54 (±5.86)
Doctor VAS pain intensity, mean (±SD), 0-100 ([3]; sixth month, topical with DMSO): 7.11 (±6.93)
Patients VAS pain intensity, mean (±SD), 0-100 ([3]; sixth month, topical with DMSO): 6.32 (±6.53)
WOMAC mean (±SD) ([3]; third month, topical with DMSO): 20.11 (±22.53)
Doctor VAS pain intensity, mean (±SD), 0-100 ([3]; third month, topical with DMSO): 20.03 (±7.32)
Patients VAS pain intensity, mean (±SD), 0-100 ([3]; third month, NaClO2 8%/NaCl 2% + citric acid 15% 1:1, DMSO 1:1, smeared once a day 20 days, three months off, 20 days): 18.24 (±7.25)
MBG (fasting blood-glucose), ±SD ([4]; Day 7 after administration, Group A n=10, Day 0 17.3 ± 0.4, NS group 18.3 ± 2.4, NaClO2 4%/NaCl 1% + citric acid 8% 1:1, 0.5 ml injected day 0, 7, 14): 9.3 ± 3.5 mmol/L
MBG (fasting blood-glucose), ±SD ([4]; Day 14 after administration, Day 0 17.3 ± 0.4, NS group 17.2 ± 1.6, 0.5 ml injected day 0, 7, 14): 4.3 ± 1.1 mmol/L
MBG (fasting blood-glucose), ±SD ([4]; Day 28 after administration, Day 0 17.3 ± 0.4, NS group 17.9 ± 2.3, 0.5 ml injected day 0, 7, 14): 3.1 ± 1.2 mmol/L
FBG levels of rats in treatment group ([4]; control group remains unchanged): become normal after 14 days
side effects ([4]; rat model of type II diabetes mellitus): few or no side effects
MBG (fasting blood-glucose), ±SD ([4]; rat, in vivo): 3.5 ± 1.3 mmol/L
effect on wound in animal test (wound of rabbit): speeding haemostasis and promoting healing on wound
duration of stabbing pain after injection without anesthetic ([5]; almost all the patients, day one after administration): 30 min
APTT, PT and TT, before vs after administration ([5]; before, day 7 and day 14 after administration, lower limb DVT patients, 10 ml/body/day femoral artery puncture): no significant differences
side effects by administration ([5]; lower limb DVT patients, 10 ml/body/day femoral artery puncture, 14 days): no occurrence of side effects
